Experimental findings from ChEMBL document CHEMBL3525956, “Species independence in brain tissue binding using brain homogenates” (Drug Metab Dispos, 2011) are described below.

Data set [1] can be described thus: Fraction unbound in Wistar Han rat brain homogenates at 1 uM after 6 hrs by equilibrium dialysis method. As to conditions: brain homogenate.
A short description of data set [2]: Fraction unbound in human occipital cortex at 1 uM after 6 hrs by equilibrium dialysis method.
Data set [3] can be described thus: Fraction unbound in Hartley guinea pig brain homogenates at 1 uM after 6 hrs by equilibrium dialysis method. The following applies: brain homogenate.
A short description of data set [4]: Fraction unbound in Beagle dog brain homogenates at 1 uM after 6 hrs by equilibrium dialysis method. As to conditions: brain homogenate.
Data set [5] in a line: Fraction unbound in Sprague-Dawley rat brain homogenates at 1 uM after 6 hrs by equilibrium dialysis method. As to conditions: brain homogenate.
Data set [6] is described as follows: Fraction unbound in cynomolgus monkey brain homogenates at 1 uM after 6 hrs by equilibrium dialysis method. The following applies: brain homogenate.
Data set [7] in a line: Fraction unbound in CD-1 mouse brain homogenates at 1 uM after 6 hrs by equilibrium dialysis method. The following applies: brain homogenate.

Consider `CC(C)C[C@H]1C(=O)N2CCC[C@H]2[C@]2(O)O[C@](NC(=O)[C@@H]3C=C4c5cccc6[nH]c(Br)c(c56)C[C@H]4N(C)C3)(C(C)C)C(=O)N12` [BROMOCRIPTINE], for which the free fraction (fraction unbound) at 6 h, 1 µM was 0.002 in data set [1]; 0.002 in data set [2]; 0.002 in data set [3]; 0.002 in data set [4]; 0.001 in data set [5]; 0.002 in data set [6]. Also, in data set [7], the free fraction (fraction unbound) at 6 h, 1 µM turned out to be 0.002.

With `CC(NC(C)(C)C)C(=O)c1cccc(Cl)c1` (configuration not stated) [BUPROPION], the fraction unbound at 6 h, 1 µM in data set [1] is 0.132; in data set [2], 0.195; in data set [3] it was 0.177; in data set [4], 0.213; in data set [5], 0.171; in data set [6], 0.167. The compound further yielded a free fraction (fraction unbound) at 6 h, 1 µM in data set [7] of 0.133.

On to `COCCOC(=O)C1=C(C)NC(C)=C(C(=O)OC(C)C)C1c1cccc([N+](=O)[O-])c1` (configuration not stated) [NIMODIPINE], for which the free fraction (fraction unbound) at 6 h, 1 µM in data set [1] turned out to be 0.01; in data set [2], 0.008; in data set [3], 0.007; in data set [4], 0.007; in data set [5], 0.009; in data set [6], 0.009. In data set [7], this compound gave a fraction unbound at 6 h, 1 µM of 0.007.

`NC1CCN(c2c(F)cc3c(=O)c(C(=O)O)cn(C4CC4)c3c2Cl)C1` (configuration not stated) [CLINAFLOXACIN]: the fraction unbound at 6 h, 1 µM in data set [1] stood at 0.148; in data set [2], 0.157; in data set [3], 0.167; in data set [4], 0.398; in data set [5] it was 0.435; in data set [6], 0.139. The fraction unbound at 6 h, 1 µM in data set [7] is 0.377.

With `CC(=O)CC(c1ccccc1)c1c(O)c2ccccc2oc1=O` (configuration not stated) [WARFARIN], the fraction unbound at 6 h, 1 µM was determined as 0.183 in data set [1]; 0.295 in data set [2]; 0.326 in data set [3]; 0.384 in data set [4]; 0.199 in data set [5]; 0.318 in data set [6]. For the same compound, the fraction unbound at 6 h, 1 µM in data set [7] came out at 0.094.

In the case of `C[C@@H](O[C@H]1OCCN(Cc2n[nH]c(=O)[nH]2)[C@H]1c1ccc(F)cc1)c1cc(C(F)(F)F)cc(C(F)(F)F)c1` [APREPITANT], the fraction unbound at 6 h, 1 µM was 0.001 in data set [1]; 0.001 in data set [2]; 0.001 in data set [3]; 0.001 in data set [4]; 0.001 in data set [5]; 0.002 in data set [6]. In data set [7], this compound registered an unbound share (fraction unbound) at 6 h, 1 µM of 0.002.

On to `O=c1n(CCCN2CCN(c3cccc(Cl)c3)CC2)nc2ccccn12` [TRAZODONE], for which the fraction unbound at 6 h, 1 µM turned out to be 0.085 in data set [1]; 0.077 in data set [2]; 0.059 in data set [3]; 0.066 in data set [4]; 0.062 in data set [5]; 0.082 in data set [6]. In data set [7], this compound registered an unbound share (fraction unbound) at 6 h, 1 µM of 0.086.

Regarding `CN1CCCC(n2nc(Cc3ccc(Cl)cc3)c3ccccc3c2=O)CC1` (configuration not stated) [AZELASTINE], the fraction unbound at 6 h, 1 µM in data set [1] was 0.012; in data set [3] it was 0.009; in data set [4], 0.011; in data set [5], 0.009; in data set [6], 0.014; in data set [7], 0.012.

Take `CCCNC(=O)NS(=O)(=O)c1ccc(Cl)cc1` [CHLORPROPAMIDE]: the fraction unbound at 6 h, 1 µM amounted to 0.223 in data set [1]; 0.583 in data set [2]; 0.65 in data set [3]; 0.668 in data set [5]; 0.699 in data set [6]; 0.441 in data set [7].

In turn, `CN[C@H]1CC[C@@H](c2ccc(Cl)c(Cl)c2)c2ccccc21` [SERTRALINE] displayed a fraction unbound at 6 h, 1 µM in data set [2] of 0.001.
